Laboratory results: article PMC6120666 (The EMBO Journal, 2018)

How the values were obtained:
[1] = system: THP1Blue cells, TLR1/TLR2/TLR4; experiment: THP1Blue NF-κB-SEAP reporter assay, non-NOD agonists (Pam3CSK4, LPS, HKLM); type: cell-based, human; settings: Pam3CSK4, LPS or HKLM
Protocol: For HEKBlue assay, cells were seeded into clear 96‐well plates at 7.5 × 10^3 cells/well and allowed to attach for 48 h. On the day of the experiment, media was changed to 100 μl of HEKBlue detection media (InvivoGen). Inhibitors were diluted and added in 0.5 μl DMSO 15 min prior to the addition of 1 ng/ml L18‐MDP (InvivoGen). After 8–9 h, absorbance at 620 nm was measured using Victor3V plate reader (Perkin Elmer, Waltham, MA). Values of media‐only wells were subtracted and %inhibition for each compound concentration relative to the DMSO/L18‐MDP‐treated controls was calculated. […] After induction, 20 μl of media was mixed with 180 μl of QUANTI‐Blue reagent (InvivoGen) and incubated at 37°C for 3–4 h, followed by absorbance measurement at 620 nm. IC50 values were calculated as described for HEKBlue assay. […]
For HEKBlue assay, cells were seeded into clear 96 well plates at 7.5x10^3 cells/well and allowed to attach for 48 h. […] After 8-9 h, absorbance at 620 nm was measured using Victor3V plate reader (Perkin Elmer, Waltham, MA). Values of media-only wells were subtracted and %inhibition for each compound concentration relative to the DMSO/L18-MDP-treated controls were calculated.
Inhibition values + StDev were fitted by non-linear regression using Prism software (GraphPad Software, La Jolla, CA) to calculate IC50 values. […] IC50 values were calculated as described for HEKBlue assay. […]

[2] = system: C57Bl6/J mice; experiment: Inhibition of MDP-elicited TNF release in vivo; settings: 10 mg/kg i.p. 30 min before MDP 100 μg/mouse i.p., blood after 4 h
Protocol: Female 6‐ to 8‐week‐old C57Bl6/J mice (Jackson labs) were administered with the compounds i.p. 30 min prior to the i.p. injections of MDP as previously described (Nachbur et al, 2015). After 4 h, blood was collected by cardiac puncture. 100 μl of serum (diluted twofold) per animal was analyzed using anti‐mouse TNF ELISA (ThermoFisher Scientific).
All mouse experiments were approved by the Tufts University Committee on the Use and Care of Animals and performed according to accepted veterinary standards. Female 6-8-week-old C57Bl6/J mice (Jackson labs) were used for the experiments. Experiments were performed as previously described (Nachbur et al., 2015). Tested compounds were formulated in 6% Captisol formulation, pH 4.0 (100 μl/mouse, 10 mg/kg, Ligand Pharmaceuticals, San Diego, CA). MDP (Bachem, King of Prussia, PA) was dissolved in saline (100 μl/mouse, 100 μg/mouse). Mice were administered with the drugs i.p. 30 min prior to the i.p. injections of MDP. After 4 h, blood was collected by cardiac puncture.
100 μl of serum (diluted 2-fold) per animal was analyzed using anti-mouse TNF ELISA (ThermoFisher […]
Expression and purification of RIPK2 for X-ray crystallography […]

Structure (SMILES) | effect on NF-κB responses to non-NOD agonists [1] | MDP-elicited serum TNF levels [2]
CCCS(=O)(=O)Nc1cc(-c2cc(-c3ccc(N4CCNCC4)cc3)cnc2N)cc(F)c1OC [CSLP37] | no detected effect | potently reduced
CCCS(=O)(=O)Nc1cc(-c2cc(-c3ccc(N4CCNCC4)cc3)cnc2N)cc(OC)c1OC [CSLP43] | no detected effect | 
Cc1ccc(-c2nn(C(C)(C)CNC(=O)c3ccncc3)c3ncnc(N)c23)cc1 [WEHI‐345, reference compound] |  | partial reduction
